# Data published in US8232272B2, “Benzimidazoledihydrothiadiazinone derivatives as fructose-1,6-bisphosphatase inhibitors, and pharmaceutical compositions comprising same” (Merck Patent Gesellschaft mit beschränkter Haftung, priority 2007, dated 2012).
# Where a name gives a salt, the structure may show the parent alone.
# Tested on: rat hepatocyte primary cultures (hepatic glucose production)
# Assay: Hepatic production of glucose in rat hepatocyte primary cultures
# Assay type: cell-based, Wistar rat
# Details: rat hepatocytes incubated 3 hours with dihydroxyacetone (DHA) as substrate, control = DHA without compounds
# Source text: Effects of the Various Compounds Described Previously on the Hepatic Production of Glucose in Rat Hepatocyte Primary Cultures
# The hepatocytes are isolated from Wistar rat liver via the collagenase perfusion technique described by Seglen (Methods Cell Biol. 1975; 13, 29-83). The cell viability is confirmed by the exclusion test with trypan blue. The isolated hepatocytes are suspended in a William's medium supplemented with foetal calf serum (10%) in 6-well plates. After a 4-hour attachment period, the medium is aspirated to remove the cell debris and replaced with a serum-free and glucose-free MEM medium. The hepatocytes are then cultured for 16 to 18 hours (37° C.; 5% CO2). At the end of culturing and after having aspirated the medium, the glucose production is measured by incubating the hepatocytes for 3 hours in a Krebs buffer supplemented with dihydroxyacetone (DHA) as neoglucogenesis substrate, in the presence or absence of the various compounds described previously. The amount of glucose in the medium is measured in each culture well via a test with glucose oxidase (GOD). The cell protein content is evaluated via the Lowry method. The results are expressed in nanomoles of glucose produced per mg of cell protein. The activity of the test compounds is expressed as a percentage of the control (production of glucose in the presence of DHA but without compounds).
# Inhibition of Hepatic Glucose Production
row,SMILES,Hepatic glucose production. % of the control at 30 μM
1,"COc1cccc(-c2nc3cc(C4=NNC(=O)SC4C)ccc3[nH]2)c1 (stereo not shown) [Example 26, 5-[2-(3-methoxyphenyl)-1H-benzimidazol-5-yl]-6-methyl-3,6-dihydro-2H-1,3,4-thiadiazin-2-one]",38 % of the control
2,"COc1cc(-c2nc3cc(C4=NNC(=O)SC4C)ccc3[nH]2)ccc1[S+](C)[O-] (stereo not shown) [Example 26-3, 5-{2-[3-methoxy-4-(methylsulfinyl)phenyl]-1H-benzimidazol-5-yl}-6-methyl-3,6-dihydro-2H-1,3,4-thiadiazin-2-one hydrochloride]",34 % of the control
3,"CC1SC(=O)NN=C1c1ccc2[nH]c(-c3ccc(-n4ccnc4)cc3)nc2c1 (stereo not shown) [Example 26-4, 5-{2-[4-(1H-imidazol-1-yl)phenyl]-1H-benzimidazol-5-yl}-6-methyl-3,6-dihydro-2H-1,3,4-thiadiazin-2-one dihydrochloride]",28 % of the control

# Target: T1, recombinant human liver fructose-1,6-bisphosphatase (Homo sapiens, UniProt P09467)
# T1 sequence (P09467 1-338): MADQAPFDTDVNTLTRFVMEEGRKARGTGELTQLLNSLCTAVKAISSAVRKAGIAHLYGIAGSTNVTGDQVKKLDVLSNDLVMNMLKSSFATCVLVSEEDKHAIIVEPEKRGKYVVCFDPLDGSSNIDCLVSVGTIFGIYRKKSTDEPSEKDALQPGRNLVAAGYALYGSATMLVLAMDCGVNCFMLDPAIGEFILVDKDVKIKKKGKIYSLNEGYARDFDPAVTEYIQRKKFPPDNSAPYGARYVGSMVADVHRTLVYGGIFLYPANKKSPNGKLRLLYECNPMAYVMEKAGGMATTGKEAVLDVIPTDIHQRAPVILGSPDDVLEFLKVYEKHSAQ
# Assay: Inhibition of recombinant human liver fructose-1,6-bisphosphatase (spectrophotometric coupled enzyme assay)
# Assay type: biochemical
# Details: 0.167 mM fructose-1,6-bisphosphate, pH 7.5, room temperature, 30 minutes at 340 nm, read-out: Inhibition of human F-1,6-BPase IC50
# Source text: […]
row,IC50 [µM],SMILES
1,7,"CC1SC(=O)N(C(C)C)N=C1c1ccc2c(c1)nc(-c1cccc(F)c1)n2C (stereo not shown) [Example 12-3, 5-[2-(3-fluorophenyl)-1-methyl-1H-benzimidazol-5-yl]-3-isopropyl-6-methyl-3,6-dihydro-2H-1,3,4-thiadiazin-2-one]"
2,8.5,"CCCN1N=C(c2ccc3c(c2)nc(-c2cccc(F)c2)n3C)C(C)SC1=O (stereo not shown) [Example 12-6, 5-[2-(3-fluorophenyl)-1-methyl-1H-benzimidazol-5-yl]-6-methyl-3-propyl-3,6-dihydro-2H-1,3,4-thiadiazin-2-one]"
3,36,"COc1cccc(-c2nc3cc(C4=NN(C)C(=O)SC4)ccc3n2C2CCCCCC2)c1 [Example 12-7, 5-[1-cycloheptyl-2-(3-methoxyphenyl)-1H-benzimidazol-5-yl]-3-methyl-3,6-dihydro-2H-1,3,4-thiadiazin-2-one]"
4,6.4,"COc1cc(-c2nc3cc(C4=NNC(=O)SC4C)ccc3[nH]2)ccc1[S+](C)[O-] (stereo not shown) [Example 26-3, 5-{2-[3-methoxy-4-(methylsulfinyl)phenyl]-1H-benzimidazol-5-yl}-6-methyl-3,6-dihydro-2H-1,3,4-thiadiazin-2-one hydrochloride]"
5,3.6,"CC1SC(=O)NN=C1c1ccc2[nH]c(-c3ccc(-n4ccnc4)cc3)nc2c1 (stereo not shown) [Example 26-4, 5-{2-[4-(1H-imidazol-1-yl)phenyl]-1H-benzimidazol-5-yl}-6-methyl-3,6-dihydro-2H-1,3,4-thiadiazin-2-one dihydrochloride]"

# Tested on: not given
# Assay: not given
# Details: not given
row,melting point [°C],SMILES
1,100 to 105,COc1cccc(-c2nc3cc(C4=NNC(=O)SC4C)ccc3n2CC(C)C)c1 (stereo not shown)
2,207 to 209,"COc1cccc(-c2nc3cc(C4=NNC(=O)SC4)ccc3n2CC(C)C)c1 [Example 11, 5-[1-isobutyl-2-(3-methoxyphenyl)-1H-benzimidazol-5-yl]-3,6-dihydro-2H-1,3,4-thiadiazin-2-one]"
3,214 to 216,"CCn1c(-c2cccc(F)c2)nc2cc(C3=NNC(=O)SC3)ccc21 [Example 11-4, 5-[1-ethyl-2-(3-fluorophenyl)-1H-benzimidazol-5-yl]-3,6-dihydro-2H-1,3,4-thiadiazin-2-one]"
4,190 to 192,"CCCC1SC(=O)NN=C1c1ccc2c(c1)nc(-c1cccc(C(F)(F)F)c1)n2C (stereo not shown) [Example 11-5, 5-{1-methyl-2-[3-(trifluoromethyl)phenyl]-1H-benzimidazol-5-yl}-6-propyl-3,6-dihydro-2H-1,3,4-thiadiazin-2-one]"
5,221 to 223,"CCn1c(-c2cccc(OC)c2)nc2cc(C3=NNC(=O)SC3)ccc21 [Example 11-6, 5-[1-ethyl-2-(3-methoxyphenyl)-1H-benzimidazol-5-yl]-3,6-dihydro-2H-1,3,4-thiadiazin-2-one]"
